Test results reported in patent publication US12180372B2, “Resin composition, optical filter, image display device, solid-state imaging element, and colorant mixture” (FUJIFILM Corporation, priority 2018, dated 2024).

Key:
[1] = Measurement of maximum absorption wavelength of colorant or colorant mixture in chloroform solution; type: physicochemical; conditions: colorant mixture in chloroform, 1×10^−6 mol/L, 10 mm cell, 23° C.
Protocol: The obtained compound F-3 was dissolved in chloroform (concentration: 1×10^−6 mol/L), and the maximum absorption wavelength […] and molar absorption coefficient (c) of the compound F-3 was measured using a cell having an optical path length of 10 mm and using a spectrophotometer UV-1800PC (manufactured by Shimazu Corporation). The maximum absorption wavelength λmax of the compound F-3 was 679 nm, and the molar absorption coefficient (s) was 355000. The obtained compound F-38 was dissolved in chloroform (concentration: 1×10^−6 mol/L), and the maximum absorption wavelength […] and molar absorption coefficient (ε) of the compound F-38 was measured using a cell having an optical path length of 10 mm and using a spectrophotometer UV-1800PC (manufactured by Shimadzu Corporation). The maximum absorption wavelength λmax of the compound F-38 was 590 nm, and the molar absorption coefficient (ε) was 204000. The obtained compound F-51 was dissolved in chloroform (concentration: 1×10^−6 mol/L), and the maximum absorption wavelength λmax and molar absorption coefficient (ε) of the compound F-51 was measured using a cell having an optical path length of 10 mm and using a spectrophotometer UV-1800 (PC (manufactured by Shimadzu Corporation). The maximum absorption wavelength λmax of the compound F-51 was 589 nm, and the molar absorption coefficient (ε) was 244000. The obtained compound F-75 was dissolved in chloroform (concentration: 1×10^−6 mol/L), and the maximum absorption wavelength λmax and molar absorption coefficient (ε) of the compound F-75 was measured using a cell having an optical path length of 10 mm and using a spectrophotometer t-UV-1800PC (manufactured by Shimadzu Corporation). The maximum absorption wavelength λmax of the compound F-75 was 589 nm, and the molar absorption coefficient (ε) was 221000.

[2] = Evaluation of solubility of colorant mixture; type: physicochemical; conditions: for Evaluation Solubility: added to toluene at 23° C., stirred for 1 hour, visually observed; for solubility in toluene: 23° C.
Protocol: Solubility of the colorant mixture shown in the following table in […] was evaluated. Specifically, the colorant mixture was added to toluene at 23° C., stirred for 1 hour, and the presence or absence of dissolution of the colorant was visually observed and the solubility was evaluated based on the following evaluation standard.

| λmax (nm) [1] | solubility in toluene [2] | Structure (SMILES) | Evaluation Solubility [2] |
| --- | --- | --- | --- |
| 498 nm | less than 0.1 % by mass | CC1=CC(C)=N/C1=C1\C(=O)C(c2[nH]c(C)cc2C)=C1O [Compound A-3] | D (solubility was less than 0.1% by mass) |
| 634 nm | less than 01 % by mass | CCN(CC)c1ccc(C2=C([O-])C(=C3C=CC(=[N+](CC)CC)C=C3)C2=O)cc1 [Compound A-21] | D (solubility was less than 0.1% by mass) |
| 673 nm | less than 0.5 % by mass | CCN(CC)c1ccc(C2=C([O-])/C(=C3/C=CC(=[N+](CC)CC)C=C3NC(=O)C(C)(C)CC)C2=O)c(NC(=O)C(C)(C)CC)c1 [Compound A-24] | C (solubility was 0.1% by mass or more and less than 0.5% by mass) |
